We go through 53 molecules from patent US9469645B2, “Compounds and compositions for the treatment of parasitic diseases” (Novartis AG, priority 2009, dated 2016).

For assay [1], the system named is W2 strain. In words: parasite proliferation assay in infected red blood cells (SYBR Green I), W2 strain. Type of assay: cell-based. The settings on record: Erythrocyte. The source says:
(§1) Compounds of the invention can be assayed to measure their capacity to inhibit proliferation of parasitemia in infected red blood cells. The proliferation is quantified by the addition of SYBR Green I (INVITROGEN)® dye which has a high affinity for double stranded DNA.

The test system of assay [2] is 3D7 P. falciparum strain. In words: parasite proliferation assay in infected red blood cells (SYBR Green I). It counts as cell-based, Plasmodium falciparum. The settings on record: Plasmodium falciparum, 3D7, Erythrocyte, 3D7 strain; read-out: EC50 3D7 strain.
Excerpt: as §1
The following assay illustrates the invention without in any way limiting the scope of the invention. This parasite proliferation assay measures the increase in parasite DNA content using a DNA intercalating dye, SYBR Green®.
3D7 P. falciparum strain is grown in complete culturing media until parasitemia reaches 3% to 8% with O+ human erythrocytes. 20 μl of screening media is dispensed into 384 well assay plates. […] 10 μl of lysis buffer (saponin, triton-X, EDTA) containing a 10× solution of SYBR Green I® in RPMI media is dispensed into the plates. The plates are lidded and kept at room temperature overnight for the lysis of the infected red blood cells.

The EC50 is the concentration that produces a half-maximal response. Consider `COC(=O)c1ccc(Nc2c(-c3ccccc3)nc3n2CCN(C(=O)C(C)(C)N)C3)cc1` [Compound 9], for which the results for the half-maximal effective concentration (EC50) in assay [1] and in assay [2] were 3990 nM and 13800 nM, respectively.
In the case of `CC(C)(N)C(=O)N1CCn2c(nc(-c3ccccc3F)c2Nc2ccc(F)cc2)C1` [Compound 10], the EC50 worked out at 1280 nM in assay [1] and 1390 nM in assay [2].
The corresponding values for `CC(C)(N)C(=O)N1CCn2c(nc(-c3ccccc3)c2Nc2ccc(F)cc2)C1` [Compound 11] are 168 nM and 200 nM.
In the same order, the values of `CC(C)(N)C(=O)N1CCn2c(nc(-c3c(F)cc(F)cc3F)c2Nc2ccc(F)cc2)C1` [Compound 12] are 2960 nM and 7400 nM.
The corresponding values for `CC(C)(N)C(=O)N1CCn2c(nc(-c3cc(F)cc(F)c3)c2Nc2ccc(F)cc2)C1` [Compound 13] are 137 nM and 260 nM.
For the molecule `CCCCCc1ccc(-c2nc3n(c2Nc2ccc(F)cc2)CCN(C(=O)C(C)(C)N)C3)cc1` [Compound 14], the concentration for a half-maximal effect (EC50) amounted to 5870 nM in assay [1] and 3590 nM in assay [2].
The corresponding values for `CC(C)(N)C(=O)N1CCn2c(nc(C3CCCCC3)c2Nc2ccc(F)cc2)C1` [Compound 15] are 2110 nM and 2630 nM.
For `CC(C)(N)C(=O)N1CCn2c(nc(-c3ccc(F)cc3)c2Nc2cccnc2)C1` [Compound 16], the EC50 was 3320 nM in assay [1] and 14100 nM in assay [2].
The corresponding values for `C[C@H](N)C(=O)N1CCn2c(nc(-c3ccc(F)cc3)c2Nc2ccc(F)cc2)C1` [Compound 17] are 64 nM and 90 nM.
Take `NCCCC(=O)N1CCn2c(nc(-c3ccc(F)cc3)c2Nc2ccc(F)cc2)C1` [Compound 18]: the EC50 in assay [1] was determined as 8140 nM; in assay [2], 12300 nM.
Take `N[C@@H](Cc1ccccc1)C(=O)N1CCn2c(nc(-c3ccc(F)cc3)c2Nc2ccc(F)cc2)C1` [Compound 19]: the EC50 was 59 nM in assay [1] and 70 nM in assay [2].
As to `N[C@H](Cc1ccccc1)C(=O)N1CCn2c(nc(-c3ccc(F)cc3)c2Nc2ccc(F)cc2)C1` [Compound 20], the values for the 50% effective concentration (EC50) in assay [1] and in assay [2] were 121 nM and 110 nM, respectively.
In the case of `CC(C)(N)C(=O)N1CCn2c(nc(-c3ccc(F)cc3)c2Nc2ccc(Br)cc2)C1` [Compound 21], the EC50 turned out to be 78 nM in assay [1] and 100 nM in assay [2].
The corresponding values for `CN(C)CC(=O)N1CCn2c(nc(-c3ccc(F)cc3)c2Nc2ccc(F)cc2)C1` [Compound 22] are 691 nM and 1300 nM.
Turning to `CC(C)(N)C(=O)N1CCn2c(nc(-c3ccc(F)cc3)c2NCc2ccccc2)C1` [Compound 23], the EC50 in assay [1] was 10500 nM; in assay [2], more than 10600 nM.
As for `Cc1ccc(-c2c(-c3ccc(Cl)cc3)nc3cnccn23)cc1` [Compound 24], the figures for the EC50 in assay [1] and in assay [2] were 2860 nM and 8920 nM, respectively.
The corresponding values for `CC(=O)NCC(=O)N1CCn2c(nc(-c3ccc(F)cc3)c2Nc2ccc(F)cc2)C1` [Compound 25] are 4350 nM and more than 10600 nM.
The corresponding values for `CC(C)(N)C(=O)N1CCn2c(nc(-c3ccc(F)cc3)c2NC2CCCCC2)C1` [Compound 27] are 5980 nM and 9610 nM.
Consider `NCC(=O)N1CCn2c(nc(-c3ccc(F)cc3)c2Nc2ccc(F)c(F)c2)C1` [Compound 30], for which the EC50 in assay [1] is 23 nM; in assay [2], 30 nM.
With `CC(C)(N)C(=O)N1CCn2c(nc(-c3ccc(F)cc3)c2-c2ccc(F)cc2)C1` [Compound 31], the 50% effective concentration (EC50) in assay [1] came out at 6890 nM; in assay [2] it was 13100 nM.
In the same order, the values of `O=C(CN1CCCC1)N1CCn2c(nc(-c3ccc(F)cc3)c2Nc2ccc(F)cc2)C1` [Compound 33] are 1620 nM and 740 nM.
With `NCCC(=O)N1CCn2c(nc(-c3ccc(F)cc3)c2Nc2ccc(F)cc2)C1` [Compound 34], the values for the EC50 in assay [1] and in assay [2] were 75 nM and 70 nM, respectively.
In the same order, the values of `CC(C)(N)C(=O)N1CCn2c(nc(-c3ccc(F)cc3)c2Nc2cccc(F)c2)C1` [Compound 35] are 105 nM and 120 nM.
In the same order, the values of `NCC(=O)N1CCn2c(nc(-c3ccc(F)cc3)c2Nc2cccc(F)c2)C1` [Compound 36] are 34 nM and 50 nM.
The corresponding values for `CC(C)(N)C(=O)N1CCn2c(nc(-c3ccc(F)cc3)c2Nc2ccc(Cl)cc2)C1` [Compound 39] are 24 nM and 20 nM.
For the molecule `NCC(=O)N1CCn2c(nc(-c3ccc(F)cc3)c2Nc2ccc(Cl)cc2)C1` [Compound 40], the figures for the EC50 in assay [1] and in assay [2] were 9 nM and 10 nM, respectively.
In the same order, the values of `O=C(CN1CCOCC1)N1CCn2c(nc(-c3ccc(F)cc3)c2Nc2ccc(F)cc2)C1` [Compound 41] are 1790 nM and 2650 nM.
In the same order, the values of `O=C(CN1CCS(=O)(=O)CC1)N1CCn2c(nc(-c3ccc(F)cc3)c2Nc2ccc(F)cc2)C1` [Compound 42] are 4610 nM and 6100 nM.
In the same order, the values of `O=C(CN1CCCC(F)(F)C1)N1CCn2c(nc(-c3ccc(F)cc3)c2Nc2ccc(F)cc2)C1` [Compound 43] are 149 nM and 180 nM.
On to `NC1(C(=O)N2CCn3c(nc(-c4ccc(F)cc4)c3Nc3ccc(F)cc3)C2)CC1` [Compound 45], for which the values for the EC50 in assay [1] and in assay [2] were 1340 nM and 980 nM, respectively.
The corresponding values for `Cc1ccc(-c2c(-c3ccc(Cl)cc3)nc3n2CCN(C(=O)C(C)(C)N)C3)cc1` [Compound 47] are 6180 nM and 6980 nM.
In the same order, the values of `Fc1ccc(Nc2c(-c3ccc(F)cc3)nc3n2CCN(Cc2ccccc2)C3)cc1` [Compound 48] are 1750 nM and 1840 nM.
In the same order, the values of `O=C(NCC(=O)N1CCn2c(nc(-c3ccc(F)cc3)c2Nc2ccc(F)cc2)C1)OCc1ccccc1` [Compound 49] are 1900 nM and 2290 nM.
For the molecule `NC(C(=O)N1CCn2c(nc(-c3ccc(F)cc3)c2Nc2ccc(F)cc2)C1)C(F)(F)F` (stereo not shown) [Compound 50], the EC50 in assay [1] was 187 nM; in assay [2], 180 nM.
The corresponding values for `NCC(=O)N1CCn2c(nc(-c3ccc(F)cc3O)c2Nc2ccc(F)cc2)C1` [Compound 51] are 62 nM and 70 nM.
In the same order, the values of `Cc1ccc(-c2nc3n(c2Nc2ccc(F)cc2)CCN(C(=O)CN)C3)cc1` [Compound 52] are 3360 nM and 3140 nM.
The corresponding values for `COc1ccc(-c2nc3n(c2Nc2ccc(F)cc2)CCN(C(=O)CN)C3)cc1` [Compound 53] are 1700 nM and 2270 nM.
For the molecule `NCC(=O)N1CCn2c(nc(-c3ccc(Br)cc3)c2Nc2ccc(F)cc2)C1` [Compound 54], the EC50 in assay [1] amounted to 764 nM; in assay [2], 1290 nM.
In the same order, the values of `NCC(=O)N1CCn2c(nc(-c3ccc(Cl)cc3)c2Nc2ccc(F)cc2)C1` [Compound 55] are 437 nM and 660 nM.
The corresponding values for `NCC(=O)N1CCn2c(nc(-c3cccc(F)c3)c2Nc2ccc(F)cc2)C1` [Compound 56] are 13 nM and 10 nM.
With `O=C(CN1CCC(F)(F)C1)N1CCn2c(nc(-c3ccc(F)cc3)c2Nc2ccc(F)cc2)C1` [Compound 57], the EC50 came out at 294 nM in assay [1] and 310 nM in assay [2].
Turning to `O=C(CN1CC[C@@H](F)C1)N1CCn2c(nc(-c3ccc(F)cc3)c2Nc2ccc(F)cc2)C1` [Compound 58], the EC50 stood at 280 nM in assay [1] and 470 nM in assay [2].
In the same order, the values of `O=C(CN1CC[C@H](F)C1)N1CCn2c(nc(-c3ccc(F)cc3)c2Nc2ccc(F)cc2)C1` [Compound 59] are 735 nM and 1090 nM.
In the same order, the values of `O=C(CN1CCC(F)CC1)N1CCn2c(nc(-c3ccc(F)cc3)c2Nc2ccc(F)cc2)C1` [Compound 60] are 2130 nM and 2460 nM.
In the same order, the values of `O=C(CN1CCC(F)(F)CC1)N1CCn2c(nc(-c3ccc(F)cc3)c2Nc2ccc(F)cc2)C1` [Compound 62] are 4740 nM and 4740 nM.
Take `O=C(CN1CCCC(C(F)(F)F)C1)N1CCn2c(nc(-c3ccc(F)cc3)c2Nc2ccc(F)cc2)C1` (stereo not shown) [Compound 63]: the figures for the EC50 in assay [1] and in assay [2] were 1610 nM and 1950 nM, respectively.
Turning to `O=C(CN1CCCC(O)C1)N1CCn2c(nc(-c3ccc(F)cc3)c2Nc2ccc(F)cc2)C1` (stereo not shown) [Compound 64], the EC50 amounted to 6460 nM in assay [1] and 9370 nM in assay [2].
The corresponding values for `O=C(CNCC(F)F)N1CCn2c(nc(-c3ccc(F)cc3)c2Nc2ccc(F)cc2)C1` [Compound 65] are 509 nM and 470 nM.
`CC(C)(N)C(=O)N1CCn2c(nc(-c3ccc(F)cc3)c2Nc2cc(F)cc(F)c2)C1` [Compound 66]: the EC50 in assay [1] was found to be 244 nM; in assay [2], 220 nM.
With `NCC(=O)N1CCn2c(nc(-c3ccc(F)cc3)c2Nc2cc(F)cc(F)c2)C1` [Compound 67], the EC50 was 197 nM in assay [1] and 190 nM in assay [2].
The corresponding values for `O=C(CNC1CC1)N1CCn2c(nc(-c3ccc(F)cc3)c2Nc2ccc(F)cc2)C1` [Compound 68] are 264 nM and 150 nM.
`CC(C)CNCC(=O)N1CCn2c(nc(-c3ccc(F)cc3)c2Nc2ccc(F)cc2)C1` [Compound 69]: the EC50 came to 94 nM in assay [1] and 80 nM in assay [2].
The corresponding values for `CC(C)(N)C(=O)N1CCn2c(nc(-c3ccc(F)cc3)c2Nc2ccc(C(F)(F)F)cc2)C1` [Compound 72] are 589 nM and 950 nM.
